# Patent US20160039880A1 (priority 2012, published 2016)
# Read-outs that look alike come from different tables or passages of the source.
# Columns and labels:
# Calcineurin = Calcineurin (Homo sapiens, UniProt P62937+P63098+Q08209); test: Calcineurin Phosphatase (CaN) Assay with Cyp A (+CypA); conditions: read-out: Calcineurin Phosphatase (CaN) Assay (+CypA) IC50; in the presence of Cyp A, 1:1 complex with inhibitor
# [1] = Water Solubility Assay (measured in pH 7.8 buffer); format: physicochemical;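 note: precipitation onset detected as rise in absorbance at 650 nm across increasing concentrations, after shaking for 18 h, blank wells receiving DMSO only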
# Protocol: The aqueous solubility of a compound of Formula I in buffer (pH 7.8) was measured by recording the onset of precipitation of the compound as a function of increasing concentration. The onset of precipitation, if it occurred, was detected by an increase in absorbance at 650 nm.
# Assay Buffer: 35 mM HEPES pH 7.8
# Stock solutions of Control and Test Compounds: 10 mM in 100% DMSO
# 10 mM stock solutions of control and test compounds were prepared in 100% DMSO.
# Assay buffer (247.5 μl) was placed into flat bottomed transparent 96-well plate. For blank samples DMSO (2.5 μl) was added. For test and control samples 2.5 μl of the appropriate DMSO dilution stocks were added to the appropriate well. All test and control compounds were performed in triplicate.
# The plates were sealed with adhesive plate seal and shaken at 250 rpm at 25° C. for 18 h on a plate shaker.
# After incubation the plate seals were taken off and any bubbles observed in wells removed. The plates were read on a SpectraMaxM5 with a 5 s pre-shake at 650 nm.
# Data files were transferred to the appropriate worksheet and the solubility range of the compounds was calculated from the data.
# [2] = target: Human recombinant cyclophilin A (Cyp A) (Homo sapiens, UniProt P62937);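 note: cis to trans isomerization of SUC-AAPF-pNA by 2 nM enzyme, read as absorbance at 330 nm over 300 s at 10 °C, catalytic rate corrected for uncatalyzed background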
# [3] = 35 mM HEPES pH 7.8, 1% DMSO, 25 °C, 18 h, read-out: Water Solubility Assay, concentration at which the compound remains in solution
# [4] = pH 7.8, read-out: Water Solubility Assay
# Human recombinant cyclophilin A (Cyp A), sequence (P62937 whole entry): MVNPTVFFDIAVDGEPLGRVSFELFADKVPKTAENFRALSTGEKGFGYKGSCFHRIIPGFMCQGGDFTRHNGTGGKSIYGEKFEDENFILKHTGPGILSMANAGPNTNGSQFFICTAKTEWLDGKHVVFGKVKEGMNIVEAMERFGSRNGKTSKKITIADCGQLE
# Calcineurin, sequence (P63098 whole entry, other chains not shown): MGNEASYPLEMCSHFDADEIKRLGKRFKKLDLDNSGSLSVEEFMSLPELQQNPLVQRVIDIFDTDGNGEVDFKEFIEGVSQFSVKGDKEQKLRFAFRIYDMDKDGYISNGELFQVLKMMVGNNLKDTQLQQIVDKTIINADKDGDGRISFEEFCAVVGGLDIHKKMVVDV
# Calcineurin, sequence (P62937 whole entry, other chains not shown): as the sequence (P62937 whole entry) above
compound,measurement,setting,value
"CC[C@H]1NC(=O)[C@@H]([C@H](O)[C@H](C)CCCC(=O)N2CCOCC2)N(C)C(=O)[C@@H](C(C)C)N(C)C(=O)[C@@H](CC(C)C)N(C)C(=O)[C@@H](CC(C)C)N(C)C(=O)[C@H](C)NC(=O)[C@@H](C)NC(=O)[C@@H](CC(C)C)N(C)C(=O)[C@@H](C(C)C)NC(=O)[C@H](CC(C)C)N(C)C(=O)CN(C)C1=O [Compound E, [(5R,6R,7S)-6-hydroxy-5-methyl-7-(methylamino)-1-N-morpholino-1-oxo-octanoic acid]^1 cyclosporin A]",IC50,Calcineurin,> 10000 nM
CC[C@H]1NC(=O)[C@@H]([C@H](O)[C@H](C)CCCC(=O)NCC2COCCO2)N(C)C(=O)[C@@H](C(C)C)N(C)C(=O)[C@@H](CC(C)C)N(C)C(=O)[C@@H](CC(C)C)N(C)C(=O)[C@H](C)NC(=O)[C@@H](C)NC(=O)[C@@H](CC(C)C)N(C)C(=O)[C@@H](C(C)C)NC(=O)[C@H](CC(C)C)N(C)C(=O)[C@@H](C)N(C)C1=O (some centres unmarked) [Compound ZX],solubility at 18 h,[1]; [3],>100 µM
same,Ki,[2],2.3 nM
"CC[C@H]1NC(=O)[C@@H]([C@H](O)[C@H](C)CCCC(=O)N2CCS(=O)(=O)CC2)N(C)C(=O)[C@@H](C(C)C)N(C)C(=O)[C@@H](CC(C)C)N(C)C(=O)[C@@H](CC(C)C)N(C)C(=O)[C@H](C)NC(=O)[C@@H](C)NC(=O)[C@@H](CC(C)C)N(C)C(=O)[C@@H](C(C)C)NC(=O)[C@H](CC(C)C)N(C)C(=O)[C@@H](C)N(C)C1=O [Compound Z, [(5R,6R,7S)-6-hydroxy-5-methyl-7-(methylamino)-1-({1,1-dioxo}thiomorpholin-4-yl)-1-oxo-octanoic acid]^1[(R)-methyl-Sar]^3 cyclosporin A]",solubility at 18 h,[1]; [3],>100 µM
same,Ki,[2],2 nM
"CC(C)CC1C(=O)NC(C(C)C)C(=O)N(C)C(CC(C)C)C(=O)NC(C)C(=O)NC(C)C(=O)N(C)C(CC(C)C)C(=O)N(C)C(CC(C)C)C(=O)N(C)C(C(C)C)C(=O)N(C)C(C(O)C(C)CCN2CCOCC2)C(=O)NC(C(C)C)C(=O)N(C)CC(=O)N1C [Compound AN, [(3R,4R,5S)-4-(hydroxy-3-methyl-5-(methylamino)-1-N-morpholino-hexanoic acid]^1 cyclosporin D]",Ki,[2],15 nM
CC[C@H]1NC(=O)[C@@H]([C@H](O)[C@H](C)CCN2CCN(C)CC2)N(C)C(=O)[C@@H](C(C)C)N(C)C(=O)[C@@H](CC(C)C)N(C)C(=O)[C@@H](CC(C)C)N(C)C(=O)[C@H](C)NC(=O)[C@@H](C)NC(=O)[C@@H](CC(C)C)N(C)C(=O)[C@@H](C(C)C)NC(=O)[C@H](CC(C)C)N(C)C(=O)CN(C)C1=O [Compound LL],Ki,[2],46 nM
"CC[C@H]1NC(=O)[C@@H]([C@H](O)[C@H](C)CCN(C)CC2COCCO2)N(C)C(=O)[C@@H](C(C)C)N(C)C(=O)[C@@H](CC(C)C)N(C)C(=O)[C@@H](CC(C)C)N(C)C(=O)[C@H](C)NC(=O)[C@@H](C)NC(=O)[C@@H](CC(C)C)N(C)C(=O)[C@@H](C(C)C)NC(=O)[C@H](CC(C)C)N(C)C(=O)[C@@H](C)N(C)C1=O (stereo partly drawn) [Compound AJ, [(3R,4R,5S)-4-Hydroxy-3-methyl-5-(methylamino)-1-(1,4-dioxan-2-ylmethyl)methylamino-hexanoic acid]^1[(R)-methyl-Sar]^3 cyclosporin A]",Ki,[2],12 nM
"[(3R,4R,5S)-4-Hydroxy-3-methyl-5-(methylamino)-1-2-(N,N-diethylamino)ethoxy-hexanoic acid]^1[(S)-thio-isopropyl-Sar]^3 cyclosporin A [Compound AL]",Ki,[2],27 nM
"CCC1NC(=O)C(C(O)C(C)CCCC(=O)NCCc2c[nH]cn2)N(C)C(=O)C(C(C)C)N(C)C(=O)C(CC(C)C)N(C)C(=O)C(CC(C)C)N(C)C(=O)C(C)NC(=O)C(C)NC(=O)C(CC(C)C)N(C)C(=O)C(C(C)C)NC(=O)C(CC(C)C)N(C)C(=O)C(C)N(C)C1=O [Compound Y, [(5R,6R,7S)-6-hydroxy-5-methyl-7-(methylamino)-1-(2-{1H-imidazol-4-yl}-ethylamino)-1-oxo-octanoic acid]^1[(R)-methyl-Sar]^3 cyclosporin A]",solubility at 18 h,[1]; [3],>100 µM
same,Ki,[2],4.1 nM
"CCC1NC(=O)C(C(O)C(C)CCN2CC(OC)C2)N(C)C(=O)C(C(C)C)N(C)C(=O)C(CC(C)C)N(C)C(=O)C(CC(C)C)N(C)C(=O)C(C)NC(=O)C(C)NC(=O)C(CC(C)C)N(C)C(=O)C(C(C)C)NC(=O)C(CC(C)C)N(C)C(=O)C(C)N(C)C1=O [Compound EH, [[(3R,4R,5S)-4-Hydroxy-1-(3-methoxy-azetidin-1-yl)-3-methyl-5-(methylamino)-hexanoic acid]^1[(R)-methyl-Sar]^3 cyclosporin A]",solubility at 18 h,[1]; [4],>100 µM
same,Ki,[2],17 nM
"CCC1NC(=O)C(C(O)C(C)CCCC(=O)NCCS(=O)(=O)N(C)C)N(C)C(=O)C(C(C)C)N(C)C(=O)C(CC(C)C)N(C)C(=O)C(CC(C)C)N(C)C(=O)C(C)NC(=O)C(C)NC(=O)C(CC(C)C)N(C)C(=O)C(C(C)C)NC(=O)C(CC(C)C)N(C)C(=O)C(C)N(C)C1=O [Compound W, [(5R,6R,7S)-6-hydroxy-5-methyl-7-(methylamino)-1-(2-{sulfonic acid dimethylamide}-ethylamino)-1-oxo-octanoic acid]^1[(R)-methyl-Sar]^3 cyclosporin A]",solubility at 18 h,[1]; [3],>100 µM
same,Ki,[2],1.9 nM
"CC[C@H]1NC(=O)[C@@H]([C@H](O)[C@H](C)CCCC(=O)N2CCN(C)CC2)N(C)C(=O)[C@@H](C(C)C)N(C)C(=O)[C@@H](CC(C)C)N(C)C(=O)[C@@H](CC(C)C)N(C)C(=O)[C@H](C)NC(=O)[C@@H](C)NC(=O)[C@@H](CC(C)C)N(C)C(=O)[C@@H](C(C)C)NC(=O)[C@H](CC(C)C)N(C)C(=O)[C@@H](C)N(C)C1=O [Compound T, [(5R,6R,7S)-6-hydroxy-5-methyl-7-(methylamino)-1-(4-methylpiperazin-1-yl)-1-oxo-octanoic acid]^1[(R)-methyl-Sar]^3 cyclosporin A]",solubility at 18 h,[1]; [3],>100 µM
same,Ki,[2],5 nM
"CC[C@H]1NC(=O)[C@@H]([C@H](O)[C@H](C)CCN2CCN(C)CC2)N(C)C(=O)[C@@H](C(C)C)N(C)C(=O)[C@@H](CC(C)C)N(C)C(=O)[C@@H](CC(C)C)N(C)C(=O)[C@H](C)NC(=O)[C@@H](C)NC(=O)[C@@H](CC(C)C)N(C)C(=O)[C@@H](C(C)C)NC(=O)[C@H](CC(C)C)N(C)C(=O)[C@@H](C)N(C)C1=O [Compound L, [(3R,4R,5S)-4-hydroxy-3-methyl-5-(methylamino)-1-(4-methylpiperazino)-hexanoic acid]^1[(R)-Me-Sar]^3 cyclosporin A]",Ki,[2],7.3 nM
"CCC1NC(=O)C(C(O)C(C)CCN2CCCN(C)CC2)N(C)C(=O)C(C(C)C)N(C)C(=O)C(CC(C)C)N(C)C(=O)C(CC(C)C)N(C)C(=O)C(C)NC(=O)C(C)NC(=O)C(CC(C)C)N(C)C(=O)C(C(C)C)NC(=O)C(CC(C)C)N(C)C(=O)C(C)N(C)C1=O [Compound EG, [[(3R,4R,5S)-4-Hydroxy-3-methyl-5-(methylamino)-1-(4-methyl-[1,4]diazepan-1-yl)-hexanoic acid]^1[(R)-methyl-Sar]^3 cyclosporin A]",solubility at 18 h,[1]; [4],>100 µM
same,Ki,[2],8.2 nM
"CC[C@H]1NC(=O)[C@@H]([C@H](O)[C@H](C)CCNCCOC)N(C)C(=O)[C@@H](C(C)C)N(C)C(=O)[C@@H](CC(C)C)N(C)C(=O)[C@@H](CC(C)C)N(C)C(=O)[C@H](C)NC(=O)[C@@H](C)NC(=O)[C@@H](CC(C)C)N(C)C(=O)[C@@H](C(C)C)NC(=O)[C@H](CC(C)C)N(C)C(=O)[C@@H](C)N(C)C1=O [Compound AF, [(3R,4R,5S)-4-Hydroxy-3-methyl-5-(methylamino)-1-(2-methoxyethylamino)-hexanoic acid]^1[(R)-methyl-Sar]^3 cyclosporin A]",Ki,[2],28 nM
CC[C@H]1NC(=O)[C@@H]([C@H](O)[C@H](C)CCN2CCNC(=O)C2)N(C)C(=O)[C@@H](C(C)C)N(C)C(=O)[C@@H](CC(C)C)N(C)C(=O)[C@@H](CC(C)C)N(C)C(=O)[C@H](C)NC(=O)[C@@H](C)NC(=O)[C@@H](CC(C)C)N(C)C(=O)[C@@H](C(C)C)NC(=O)[C@H](CC(C)C)N(C)C(=O)CN(C)C1=O [Compound NN],Ki,[2],120 nM
"CC[C@H]1NC(=O)[C@@H]([C@H](O)[C@H](C)CCCC(=O)NCCOC)N(C)C(=O)[C@@H](C(C)C)N(C)C(=O)[C@@H](CC(C)C)N(C)C(=O)[C@@H](CC(C)C)N(C)C(=O)[C@H](C)NC(=O)[C@@H](C)NC(=O)[C@@H](CC(C)C)N(C)C(=O)[C@@H](C(C)C)NC(=O)[C@H](CC(C)C)N(C)C(=O)[C@@H](C)N(C)C1=O [Compound ZY, [(5R,6R,7S)-6-hydroxy-5-methyl-7-(methylamino)-1-(2-methoxyethylamino)-1-oxo-octanoic acid]1[(R)-methyl-Sar]3 cyclosporin A]","Water Solubility Assay, concentration at which the compound remains in solution","[1]; 35 mM HEPES pH 7.8, 1% DMSO, 25 °C, 18 h",75 to 100 µM
same,Ki,[2],5.7 nM
"CC[C@H]1NC(=O)[C@@H]([C@H](O)[C@H](C)CCN2CCSCC2)N(C)C(=O)[C@@H](C(C)C)N(C)C(=O)[C@@H](CC(C)C)N(C)C(=O)[C@@H](CC(C)C)N(C)C(=O)[C@H](C)NC(=O)[C@@H](C)NC(=O)[C@@H](CC(C)C)N(C)C(=O)[C@@H](C(C)C)NC(=O)[C@H](CC(C)C)N(C)C(=O)[C@@H](C)N(C)C1=O [Compound J, [(3R,4R,5S)-4-Hydroxy-3-methyl-5-(methylamino)-1-(thiomorpholino)-hexanoic acid]^1[(R)-Me-Sar]^3 cyclosporin A]",Ki,[2],3.7 nM
"CC[C@H]1NC(=O)[C@@H]([C@H](O)[C@H](C)CCN2CCS(=O)(=O)CC2)N(C)C(=O)[C@@H](C(C)C)N(C)C(=O)[C@@H](CC(C)C)N(C)C(=O)[C@@H](CC(C)C)N(C)C(=O)[C@H](C)NC(=O)[C@@H](C)NC(=O)[C@@H](CC(C)C)N(C)C(=O)[C@@H](C(C)C)NC(=O)[C@H](CC(C)C)N(C)C(=O)[C@@H](C)N(C)C1=O [Compound P, [(3R,4R,5S)-4-Hydroxy-3-methyl-5-(methylamino)-1-(1,1-dioxo-thiomorpholino)-hexanoic acid]^1[(R)-Me-Sar]^3 cyclosporin A]",Ki,[2],3.2 nM
